Values joined by “and” are separate entries in the source; they are usually repeats but may differ in a detail not shown here. Identical values can stand only once. “Also recorded” adds a separate entry of the source.

The test system of one test is rotavirus (EDIM viral lysate). It is filed as in vivo, BALB/c mice. The following applies: mice immunized with MBP::VP6; intramuscularly with QS-21 versus intranasally with LT.
Take QS-21 [reference compound]: the “Serum IgG response” value was “greater IgG response”.

The next test has as its system EDIM virus (murine rotavirus). It is filed as in vivo, BALB/c mice. Particulars: BALB/c mice, MBP::VP6 given intranasally with the adjuvant named.
Regarding QS-21 [reference compound], the Reduction in shedding worked out at 43%.

The same test, now with this note: BALB/c mice, MBP::VP6 given orally with the adjuvant named.
Take QS-21 [reference compound]: the Reduction in shedding was determined as 59%.

The test is the same for the next values; noted with them: mouse, in vivo.
As to “2: one of 11 overlapping synthetic peptides (18 to 31 amino acids) of the CD region of VP6, Table 10 (PDAERFSFPRVINSADGA; Rotavirus VP6 fragment) [Peptide 2]”, the “Mean reduction in rotavirus shedding (protection)” value (shortened to “Mean reduction”) came out at 70%.

Consider “4: one of 11 overlapping synthetic peptides (18 to 31 amino acids) of the CD region of VP6, Table 10 (FNPVILRPNNVEVEFLLNGQVINTYQARF; Rotavirus VP6 fragment) [Peptide 4]”, for which the “Mean reduction” value came to 77%.

For the substance “Peptide 3: one of 11 overlapping synthetic peptides (18 to 31 amino acids) of the CD region of VP6, Table 10 (FSFPRVINSADGATTWYFNPVILRPNNVEV; Rotavirus VP6 fragment)”, the “% Reduction in shedding” value was 57%; the “Mean reduction” value is listed as 57%; the “Shedding per mouse per day” value is 96; the “Shedding, Day 7” value was determined as 0.

For the substance “Peptide 5: one of 11 overlapping synthetic peptides (18 to 31 amino acids) of the CD region of VP6, Table 10 (NGQVINTYQARFGTIVARNFDTIRLSFQLM; Rotavirus VP6 fragment)”, the “% Reduction in shedding” value is on record as 0%, the “Mean reduction” value was “did not elicit protection” and the “Shedding per mouse per day” value is 341.

“Peptide 6: 25 mer synthetic peptide of the CD region of VP6 containing the 14-amino acid sequence RLSFQLMRPPNMTP, Table 10 (RNFDTIRLSFQLMRPPNMTPAVTAL; Rotavirus VP6 fragment)”: the “% Reduction in shedding” value is 88%; the “Mean reduction” value worked out at 88%; the “Shedding per mouse per day” value stood at 27; the “Shedding, Day 7” value is recorded as 0.

As for “Peptide 7: one of 11 overlapping synthetic peptides (18 to 31 amino acids) of the CD region of VP6, Table 10 (MTPAVTALFPNAQPFEHHATVGLTLRIDSA; Rotavirus VP6 fragment)”, the “% Reduction in shedding” value amounted to 18%, the “Mean reduction” value is on record as “did not elicit protection” and the “Shedding per mouse per day” value was found to be 185.

As to “Peptide 9: one of 11 overlapping synthetic peptides (18 to 31 amino acids) of the CD region of VP6, Table 10 (VLADASETMLANVTSVRQEYAI; Rotavirus VP6 fragment)”, the “% Reduction in shedding” value is given as 0%, the “Mean reduction” value is “did not elicit protection” and the “Shedding per mouse per day” value came to 275.

“Peptide 10: one of 11 overlapping synthetic peptides (18 to 31 amino acids) of the CD region of VP6, Table 10 (QEYAIPVGPVFPPGMNWTDLITNYSPSRED; Rotavirus VP6 fragment)”: the “% Reduction in shedding” value is given as 0%; the “Mean reduction” value is recorded as “did not elicit protection”; the “Shedding per mouse per day” value stood at 1825; the “Shedding, Day 7” value turned out to be 0.

As to “Peptide 11: one of 11 overlapping synthetic peptides (18 to 31 amino acids) of the CD region of VP6, Table 10 (TDLITNYSPSREDNLQRVFTVASIRSMLVK; Rotavirus VP6 fragment)”, the “% Reduction in shedding” value came to 64%; the “Mean reduction” value amounted to 64%; the “Shedding per mouse per day” value was 80; the “Shedding, Day 6” value is 30 and 29 and 41 and 36 and 23. Also, the “Shedding, Day 7” value was found to be 0.

Consider RLSFQLMRPPNMTP [Peptide 6-14], for which the “Mean reduction” value is recorded as “comparable protection to that of peptide 6; also recorded: nearly complete protection”.
